Laboratory results: paper PMC6178619, “Arylvinylpiperazine Amides, a New Class of Potent Inhibitors Targeting QcrB of Mycobacterium tuberculosis” (mBio, 2018)

Key:
Assay type in all cases: cell-based, Mycobacterium tuberculosis
[1] = system: AX-resistant mutants of M. tuberculosis H37Rv
[2] = system: H37Rv Δcyd KO with a QcrB(A317V) mutation
[3] = system: AX-resistant mutants of M. tuberculosis H37Rv (QcrB S182P, M342V, M342I)
[4] = system: Q203-resistant strain of M. tuberculosis H37Rv (QcrB T313A)
[5] = system: LPZS-resistant strain of M. tuberculosis H37Rv (QcrB L176P)

Q: With `CCc1nc2ccc(Cl)cn2c1C(=O)NCc1ccc(N2CCC(c3ccc(OC(F)(F)F)cc3)CC2)cc1` [Compound Q203, reference compound] as the compound, how does the “Intracellular ATP level” value [1] read?
A: The value was “depleted”.

Q: What about the “OCR change from basal on compound addition” value [2] of the same compound?
A: The value was “unaffected”.

Q: With `O=C(/C=C/c1cccs1)N1CCN(Cc2ccc3c(c2)OCO3)CC1` [AX-35, (E)-1-(4-(Benzo[d][1,3]dioxol-5-ylmethyl)piperazin-1-yl)-3-(thiophen-2-yl)prop-2-en-1-one] as the compound, how does the “Intracellular ATP level” value [1] read?
A: Its value is “essentially unaffected”.

Q: What about the “OCR change from basal on compound addition” value [2] of the same compound?
A: The value was “decreases”.

Q: And the “Increase in MIC compared to parental strain H37Rv” value [3]?
A: The value was 50 fold.

Q: What about the Cross-resistance [4] of the same compound?
A: The Cross-resistance was “cross-resistant”.

Q: And the Cross-resistance [5]?
A: The Cross-resistance was “cross-resistant”.

Q: How did the “Intracellular ATP level” value [1] turn out when `COc1nc2ccc(Br)cc2cc1[C@@H](c1ccccc1)[C@@](O)(CCN(C)C)c1cccc2ccccc12` [BDQ, bedaquiline, reference compound] was run?
A: Its value is “depleted”.

Q: `O=C(/C=C/c1ccsc1)N1CCN(Cc2ccc3c(c2)OCO3)CC1` [AX-36, (E)-1-(4-(Benzo[d][1,3]dioxol-5-ylmethyl)piperazin-1-yl)-3-(thiophen-3-yl)prop-2-en-1-one] was tested. Which “Intracellular ATP level” value [1] did it give?
A: Its value is “essentially unaffected”.

Q: What about the “Increase in MIC compared to parental strain H37Rv” value [3] of the same compound?
A: Its value is 50 fold.

Q: And the Cross-resistance [4]?
A: Its Cross-resistance is “cross-resistant”.

Q: And the Cross-resistance [5]?
A: The Cross-resistance was “cross-resistant”.
